Source: patent publication US5538731A, “Cosmetic” (Mikimoto Pharmaceutical Co., Ltd., priority 1992, dated 1996)

Experiment: Antioxydation test (linoleic acid, thiocyanate method)
Conditions: 5 mg specimen
Procedure: In a 50 ml test tube with a screw cap, the following test solution was prepared. […]
This test solution was allowed to stand in a thermostatic bath at 50° C., while light was shut out. […]
12.125 ml of 75% ethanol and 0.125 ml of 30% ammonium thiocyanate were added to 0.125 ml of the test solution, and the solution was stirred and then allowed to stand for 3 minutes. Afterward, 0.125 ml of a 3.5% aqueous HCl solution including 0.02 N ferrous chloride was added thereto, and the solution was stirred and then allowed to stand for 3 minutes. Next, absorbance was measured at a wavelength of 500 nm. A cell length was 10 mm, and a control was prepared by replacing the test solution with water.

Substance: Vitamin E
- Absorbance at 500 nm After 3 days (linoleic acid test solution at 50° C., light shut out, water 0.050): 0.026
- Absorbance at 500 nm After 5 days (linoleic acid test solution at 50° C., light shut out, water 0.103): 0.047
- Absorbance at 500 nm After 7 days (linoleic acid test solution at 50° C., light shut out, water 0.262): 0.070
- Absorbance at 500 nm After 0 day (linoleic acid test solution, before placing at 50° C., water 0.014): 0.015
